Where no end group is shown, it is not given here. The star is where a group is joined. Pam3Cys = N-terminal lipid (lipidation), CCCCCCCCCCCCCCCC(=O)N[C@@H](CSCC(COC(=O)CCCCCCCCCCCCCCC)OC(=O)CCCCCCCCCCCCCCC)C(=O)*
Key:
Lineage-CD11b+ monocytes = test: Monocyte analysis and counting after adjuvant injection in mice; assay type: in vivo, C57BL/6 mice
Description: (§1) 24-Hours after injection of the TLR adjuvants, peripheral blood was drawn from C57BL/6 mice via cardiac puncture with lithium-heparin as anticoagulant. Red blood cell lysis was performed twice on pooled blood with Ammonium Chloride-based Buffer (Sigma, Steinheim, Germany) and cells were counted with the EasyCount™ System (Immunicon). […] Cells were finally washed three times and fixed for 15 min. with a 2% paraformaldehyde solution in PBS. Fluorescence minus one (FMO) controls were always included in the assays for fluorescent compensation setting. Samples were acquired on a flow cytometer (BD FACSCanto II) and data analyzed with the FACSDiva software (BD Biosciences). Monocytes were identified by their Side/Forward scatter properties and gated as CD3-/CD45R/B220-/Ly-6G-/NK1.1-(Lineage-)/CD11b+ cells. CD11b+ monocyte frequency was reported as a percentage of the total cells excluding debris.
as §1, with “24 hours” for “24-Hours”, “each immunomodulator,” for “the TLR adjuvants,”, “min” for “min.”, “monocytes” for “monocyte”

APPSwe/PS1 mice = test: T-water maze; assay type: in vivo; details: Example 21: twelve weekly injections; CRX527, CRX601 20 μg i.p., 3D MPL 50 μg i.p., AS01B 1/10th human dose i.m.; FIG. 24
Description: Five groups of APPSwe/PS1 mice received one a week for a period of 12 weeks the following treatment: • Gr1: APPSwe/PS1+NaCl 0.9% n(=20), i.p. injections • Gr4: APPSwe/PS1+CRX527 (20 μg/mouse, 130 μl, n=10), i.p. injections • Gr5: […] (50 μg/mouse, 130 μl, n=10), i.p. injections • Gr8 APPSwe/PS1+AS15 ( 1/10th of human dose, 50 μl, n=10), i.m. injections • Gr9: APPSwe/PS1+AS01B ( 1/10th of human dose, 50 μl, n=10), i.m. injections
Mice were tested during the “light on” phase of the day. Behavioral experimenter was blinded to the genetic and treatment status of animals. To assess hippocampal-dependent spatial learning and memory, mice were trained in the T-water maze task. In this paradigm, we evaluate the mouse's ability to remember the spatial location of submerged platform. The T-maze apparatus (length of stem, 64 cm; length of arms, 30 cm; width, 12 cm; height of walls, 16 cm) was made of clear fiberglass and filled with water (23±1° C.) at a height of 12 cm. A platform (11×11 cm) was placed at the end of the target arm and was submerged 1 cm below the surface. The acquisition phase allows to evaluate animals for left-right spatial learning. During the first two trials, platforms were placed on each arms of the maze to test the spontaneous turning preference of the mouse. After these two trials, the least chosen arm was reinforced by the escape platform. The mice were placed in the stem of the T-maze and choose to swim either left or right until they found the submerged platform and escape to it, to a maximum of 60 s. After reaching the platform, the mice remained on it for 20 s and then were immediately placed back in the maze. […] Repeated trials were presented on the same day up to a maximum of 48 trials. A rest period of at least 10-15 min intervened between each block of 10 trials. A mouse was considered to have learned the task when it made no errors in a block of five consecutive trials. […] The number of trials to reach the criterion (five of five correct choices made on consecutive trials) was measured as well as the latency to find the escape platform.

BV2 microglia cells = test: In vitro phagocytosis of Aβ1-42 in BV2 cells, Western blot; assay type: cell-based, mouse; details: 5 μg/mL cytochalasin D; FIG. 16
Description: For total Aβ detection, 10-30 μg of cell extracts were separated on a precast 10-20% SDS polyacrylamide Tris-Tricine gel (Bio-Rad, Canada). Separated proteins were then transferred onto polyvinylidene fluoride (PVDF) membranes (PerkinElmer, Canada). Membrane were incubated in DPBS (Gibco, USA) at 90° C. for 10 min. Membrane were then incubated for 1 hour in blocking solution, which consist in TBS-T (50 mM Tris-HCl pH 8,0; 150 mM NaCl; 0.05% Tween 20) supplemented with 1% BSA (Sigma, Canada) and 5% non-fat dry milk, and probed for 16 hours at 4° C. with a mouse anti-amyloid beta protein monoclonal antibody clone 6E10 (Covance, USA) diluted to 1:1000 in TBS-T supplemented with 5% BSA and 0.02% sodium azide. Membranes were washed once for 15 min and three times for 5 min in TBS-T at room temperature. […] Films were digitalized using a HP Scanjet 4370 (HP) and signal intensity was measured using ImageJ (version 1.44p, NIH).
Aβ specific antibodies stimulate the uptake of soluble Aβ1-42 toxic peptides in an actin polymerization-dependent mechanism. […] Cells were incubated for the indicated period of time, resuspended by trypsinization, collected, solubilised in lysis buffer and further analyzed by immunoblotting. […]

[1] = tested on: human microglial cell line CHME; test: Phagocytosis of beta-amyloid 1-42 peptide by CHME cells; assay type: cell-based; details: Pam3Cys lip peptide 5 ug per ml, FIG. 18
Description: Phagocytosis of beta-amyloid 1-42 peptide by the human microglial cell line CHME was observed after the addition of TLR2 agonist containing adjuvants Protollin and Pam3CysLip peptide. […] The synthetic peptide sequence of the Pam3Cys Lip peptide is described herein: Pam3Cys-SQ EPAAPAAEAT PAAEAP. Protollin was used at concentration 1 ug per ml based on the LPS content from Shigella flexneri. Pam3Cys lip peptide was used at concentration of 5 ug per ml of the pure tri-palmitoylated peptide.
Additionally, cells were imaged using 42 HiLyte 488 Fluo (Anaspec, Inc.) at 2 ug per ml in DMEM complete media (Invitrogen). Lysotracker red staining was performed and slides were mounted and co-stained with DAPI to show the nucleus (blue). […] Lysotracker red reagent was purchased from Invitrogen and used as manufacturer recommendations.

Aβ42 = Aβ42 specific immunogenicity in the amyloid deposition mouse model; assay type: in vivo, TASTPM mice; details: 12 injections of 10 ug, intramuscular route; FIG. 29
Description: Whole blood is collected from mice and centrifuged on a vacutainer blood collection tube containing gel for serum separation. Serum samples are stored at −80° C. Streptavidin-coated plates (Greiner Bio-One, Germany) are first coated with beta-amyloid (1-42)-Lys(Biotin)-NH2 peptide (Anaspec, Inc.) at 0.5 μg/mL, using 50 mM sodium carbonate buffer, overnight at 4° C. Plates are then washed using a 4 times using PBS/0.05% Tween 20. Super Block (ScyTek laboratories) is added to the plates and incubated at 37° C. for at least one hour. Serum samples and standard (anti Aβ42 antibody (6E10 antibody, Covance, Inc.) are serially diluted in the plates and incubated at 37° C. for 2 hours. After a wash step, diluted peroxidase AffiniPure goat anti-mouse IgG, Fcγ fragment specific (Jackson ImmunoResearch Laboratories Inc.) is added for 1 hour at 37° C. A last wash is performed before adding TMB substrate reagent (BD OptEIA™, BD Biosciences) for 30 min at RT. Immediately, plates are stopped using 2N sulfuric acid, and then read at 450 nm using SpectraMax microplate reader (Molecular Devices, Inc.).

TASTPM mice = test: T-water maze test in TASTPM; assay type: in vivo; details: 12 weekly i.m. injections; FIG. 30
Description: To determine whether a TLR2 agonist will improve the cognitive impairment in TASTPM mice, the Pam3CysLip adjuvant fused to the Aβ1-6 peptide was injected 12 times at weekly basis using the intramuscular route and the memory was assessed using the T-water maze test. […] TASTPM mice have received one a week for a period of 12 weeks the following treatment: PBS or mice have received once a week for a period of 12 weeks the following treatment: PBS or of Pam3CysLip Aβ1-6 peptide.

PDAPP mice = details: immunization of young PDAPP mice; cited from earlier work

Compound: CCCCCCCCCCC[C@H](CC(=O)N[C@H]1[C@H](OC[C@H](NC(=O)C[C@@H](CCCCCCCCCCC)OC(=O)CCCCCCCCC)C(=O)O)O[C@H](CO)[C@@H](OP(=O)(O)O)[C@@H]1OC(=O)C[C@@H](CCCCCCCCCCC)OC(=O)CCCCCCCCC)OC(=O)CCCCCCCCC [CRX527]
- circulating monocytes numbers following injection (Lineage-CD11b+ monocytes; i.m. or i.p. routes, doses of b403, FIG. 9): Upregulation of circulating monocytes numbers
- behaviour as assessed by T water maze testing (APPSwe/PS1 mice): significant improvements in behaviour

Compound: C=C1[C@@H](C)[C@H]2[C@H](Cc3ccccc3)NC(=O)[C@]23[C@H](OC(C)=O)/C=C/[C@@](C)(O)C(=O)[C@@H](C)C/C=C/[C@H]3[C@@H]1O [cytochalasin D]
- effect on 2E7-increased cellular uptake of Aβ1-42 (BV2 microglia cells): inhibited

Compound: Pam3Cys-SQ EPAAPAAEAT PAAEAP (Pam3Cys-SQEPAAPAAEATPAAEAP) [Pam3CysLip peptide, TLR2 agonist, tri-palmitoylated peptide from Neisseria meningitidis strain 8047]
- phagocytosis ([1]; pre-incubation 18 hrs): 86 % of cells
- phagocytosis of Aβ1-42 by CHME ([1]; Protollin 1 ug per ml (LPS content), 18 hrs, vs PBS): higher amyloid phagocytic activity

Compound: Pam3Cys-SQ EPAAPAAEAT PAAEAPDAEFRH (Pam3Cys-SQEPAAPAAEATPAAEAPDAEFRH) [Pam3CysLip Aβ1-6 peptide]
- anti Aβ42 specific immunogenicity (Aβ42): High and specific anti Aβ42 specific immunogenicity
- right-left discrimination tests (T-water maze) vs PBS injected group (TASTPM mice): trend of improvement

Compound: QS21 [reference compound]
- activated Ly6C+ monocytes (Lineage-CD11b+ monocytes; single i.m. injection, 24 hrs, FIG. 19B): 75%
- number of monocytes, % of total peripheral white blood cells (Lineage-CD11b+ monocytes; single i.m. injection, after 24 hrs, QS21 5 μg, FIG. 19A): 9.1%

Compound: synthetic human Aβ1-42: synthetic human Aβ1-42 used to immunize PDAPP mice
- AD-like neuropathologies (PDAPP mice): reduce the extent and progression
